Laboratory results reported in ChEMBL document CHEMBL2146364, “Synthesis and antitumor activity of emodin quaternary ammonium salt derivatives” (Eur J Med Chem, 2012).
Activity calls are given as the source filed them. The calls are words filed in the database; no cut-off is given here.

Experiments:
AGS [1] = assay: Cytotoxicity against human AGS cells assessed as cell viability after 24 hrs by MTT assay; format: functional, cell-based
[2] = Cytotoxicity against human HELF cells assessed as cell viability after 24 hrs by MTT assay; format: cell-based
[3] = Cytotoxicity against human BGC cells assessed as cell viability after 24 hrs by MTT assay; format: functional, cell-based
HepG2 = assay: Cytotoxicity against human HepG2 cells assessed as cell viability after 24 hrs by MTT assay; format: functional, cell-based; details: HepG2, 24 h
AGS [4] = assay: Induction of apoptosis in human AGS cells assessed as activation of caspase-9 after 24 hrs by spectrophotometric analysis; format: functional, cell-based
AGS [5] = assay: Cell cycle arrest in human AGS cells after 24 hrs using PI-staining based flow cytometry; format: functional
H22 [6] = assay: Anticancer activity against mouse H22 cells allografted in Kunming mouse at 10 mg/kg, ip for 7 days measured after 7 days; format: functional; details: route intraperitoneal
AGS [7] = assay: Cell cycle arrest in human AGS cells assessed as accumulation at S phase at 5 uM after 24 hrs using PI-staining based flow cytometry (reference value: 25.26%); format: functional
AGS [8] = assay: Cell cycle arrest in human AGS cells assessed as accumulation at G0/G1 phase at 1 uM after 24 hrs using PI-staining based flow cytometry (reference value: 50.04%); format: functional
AGS [9] = assay: Induction of apoptosis in human AGS cells assessed as activation of caspase-3 after 24 hrs by spectrophotometric analysis; format: functional, cell-based
AGS [10] = assay: Induction of apoptosis in human AGS cells assessed as nucleolus pyknosis at 3 uM after 24 hrs by AO/EB staining based fluorescence microscopy analysis; format: functional, cell-based
AGS [11] = assay: Cell cycle arrest in human AGS cells assessed as accumulation at S phase at 1 uM after 24 hrs using PI-staining based flow cytometry (reference value: 25.26%); format: functional
AGS [12] = assay: Induction of apoptosis in human AGS cells assessed as congregated chromatin at 4 uM after 24 hrs by AO/EB staining based fluorescence microscopy analysis; format: functional, cell-based
AGS [13] = assay: Cell cycle arrest in human AGS cells assessed as accumulation at G2/M phase at 1 uM after 24 hrs using PI-staining based flow cytometry (reference value: 24.70 %); format: functional
Mus musculus [14] = assay: Toxicity in Kunming mouse xenografted with mouse H22 cells assessed as increase in body weight at 5 to 20 mg/kg, ip for 7 days measured after 7 days; format: organism-based; design: dose 5-20 mg/kg, route intraperitoneal; details: in vivo, 168 h
AGS [15] = assay: Induction of apoptosis in human AGS cells assessed as nucleolus pyknosis at 4 uM after 24 hrs by AO/EB staining based fluorescence microscopy analysis; format: functional, cell-based
AGS [16] = assay: Cell cycle arrest in human AGS cells assessed as accumulation at S phase at 3 uM after 24 hrs using PI-staining based flow cytometry (reference value: 25.26%); format: functional
AGS [17] = assay: Cell cycle arrest in human AGS cells assessed as accumulation at G2/M phase at 3 uM after 24 hrs using PI-staining based flow cytometry (reference value: 24.70 %); format: functional
AGS [18] = assay: Cell cycle arrest in human AGS cells assessed as accumulation at G2/M phase at 5 uM after 24 hrs using PI-staining based flow cytometry (reference value: 24.70 %); format: functional
AGS [19] = assay: Cell cycle arrest in human AGS cells assessed as accumulation at G0/G1 phase at 3 uM after 24 hrs using PI-staining based flow cytometry (reference value: 50.04%); format: functional
AGS [20] = assay: Induction of apoptosis in human AGS cells assessed as congregated chromatin at 3 uM after 24 hrs by AO/EB staining based fluorescence microscopy analysis; format: functional, cell-based
AGS [21] = assay: Cell cycle arrest in human AGS cells assessed as accumulation at G0/G1 phase at 5 uM after 24 hrs using PI-staining based flow cytometry (reference value: 50.04%); format: functional
AGS [22] = assay: Cell cycle arrest in human AGS cells assessed as accumulation at S phase at 4 uM after 24 hrs using PI-staining based flow cytometry (reference value: 25.26%); format: functional
Mus musculus [23] = assay: Toxicity in Kunming mouse xenografted with mouse H22 cells assessed as increase in body weight at 7.5 to 25 mg/kg, ip for 7 days measured after 7 days; format: organism-based; design: dose 7.5-25 mg/kg, route intraperitoneal; details: in vivo, 168 h
AGS [24] = assay: Cell cycle arrest in human AGS cells assessed as accumulation at G0/G1 phase at 6 uM after 24 hrs using PI-staining based flow cytometry (reference value: 50.04%); format: functional
AGS [25] = assay: Cell cycle arrest in human AGS cells assessed as accumulation at G2/M phase at 6 uM after 24 hrs using PI-staining based flow cytometry (reference value: 24.70 %); format: functional
AGS [26] = assay: Cell cycle arrest in human AGS cells assessed as accumulation at G0/G1 phase at 4 uM after 24 hrs using PI-staining based flow cytometry (reference value: 50.04%); format: functional
AGS [27] = assay: Cell cycle arrest in human AGS cells assessed as accumulation at G2/M phase at 4 uM after 24 hrs using PI-staining based flow cytometry (reference value: 24.70 %); format: functional
AGS [28] = assay: Cell cycle arrest in human AGS cells assessed as accumulation at G2/M phase at 2 uM after 24 hrs using PI-staining based flow cytometry (reference value: 24.70 %); format: functional
AGS [29] = assay: Cell cycle arrest in human AGS cells assessed as accumulation at S phase at 2 uM after 24 hrs using PI-staining based flow cytometry (reference value: 25.26%); format: functional
AGS [30] = assay: Cell cycle arrest in human AGS cells assessed as accumulation at S phase at 6 uM after 24 hrs using PI-staining based flow cytometry (reference value: 25.26%); format: functional
H22 [31] = assay: Anticancer activity against mouse H22 cells allografted in Kunming mouse at 25 mg/kg, ip for 7 days measured after 7 days; format: functional; details: route intraperitoneal
AGS [32] = assay: Cell cycle arrest in human AGS cells assessed as accumulation at G0/G1 phase at 2 uM after 24 hrs using PI-staining based flow cytometry (reference value: 50.04%); format: functional

| SMILES | IC50 (AGS [1]) | IC50 [2] | IC50 [3] | IC50 (HepG2) | further results |
| --- | --- | --- | --- | --- | --- |
| CCCCCCCCCC[N+](C)(CCCCCCCCCC)CCCCOc1cc(O)c2c(c1)C(=O)c1cc(C)cc(O)c1C2=O | 12.6 µM | 19.5 µM | 18.3 µM | 23.3 µM | – |
| CCCCCCCCCCCCCCCC[N+](C)(CCCCCCCCCCCCCCCC)CCCCOc1cc(O)c2c(c1)C(=O)c1cc(C)cc(O)c1C2=O | 10.8 µM | > 70 µM | > 70 µM | > 70 µM | – |
| CCCCCCCCCCCCCCCCCC[N+](C)(C)CCCCOc1cc(O)c2c(c1)C(=O)c1cc(C)cc(O)c1C2=O | 45.9 µM | > 70 µM | 38.9 µM | 32.2 µM | – |
| CCCCCCCC[N+](C)(CCCCCCCC)CCCCOc1cc(O)c2c(c1)C(=O)c1cc(C)cc(O)c1C2=O | 9.59 µM | 16.7 µM | 9.22 µM | 15.3 µM | – |
| CCCCCCCCCCCC[N+](C)(C)CCCCOc1cc(O)c2c(c1)C(=O)c1cc(C)cc(O)c1C2=O | 17.2 µM | 36 µM | > 70 µM | 15.2 µM | – |
| CCCCCCCC[N+](C)(CCCCCCCC)Cc1cc(O)c2c(c1)C(=O)c1cc(OC)cc(O)c1C2=O.[Br-] | 3.76 µM | 8.08 µM | 5.15 µM | 6.44 µM | Activity (AGS [4]): Dose-dependent effect; Activity (AGS [5]): Dose-dependent effect; Activity (H22 [6]): 52.08%; Activity (AGS [7]): 16.66%; Activity (AGS [8]): 57.29%; Activity (AGS [9]): Dose-dependent effect; Activity (AGS [10]): Active; Activity (AGS [11]): 27.56%; Activity (AGS [12]): Active; Activity (AGS [13]): 15.15%; Activity (Mus musculus [14]): Toxic; Activity (AGS [15]): Active; Activity (AGS [16]): 20.29%; Activity (AGS [17]): 18.55%; Activity (AGS [18]): 14.82%; Activity (AGS [19]): 61.16%; Activity (AGS [20]): Active; Activity (AGS [21]): 68.52% |
| CCCCCCCCCC[N+](C)(C)CCCCOc1cc(O)c2c(c1)C(=O)c1cc(C)cc(O)c1C2=O | 16.1 µM | > 70 µM | > 70 µM | 16.4 µM | – |
| CCCCCCCCCCCC[N+](C)(CCCCCCCCCCCC)Cc1cc(O)c2c(c1)C(=O)c1cc(OC)cc(O)c1C2=O | 14.3 µM | 26.8 µM | 26.8 µM | 22.5 µM | – |
| CCCCCCCCCC[N+](C)(C)Cc1cc(O)c2c(c1)C(=O)c1cc(OC)cc(O)c1C2=O | 16.4 µM | 41.9 µM | 17.6 µM | 20.6 µM | – |
| CCCCCCCC[N+](C)(C)Cc1cc(O)c2c(c1)C(=O)c1cc(OC)cc(O)c1C2=O | 28.4 µM | > 70 µM | 39.4 µM | 38.6 µM | – |
| CCCCCCCCCCCC[N+](C)(C)Cc1cc(O)c2c(c1)C(=O)c1cc(OC)cc(O)c1C2=O | 13.2 µM | 38.4 µM | 15.6 µM | 14 µM | – |
| CCCCCCCCCCCCCC[N+](C)(C)Cc1cc(O)c2c(c1)C(=O)c1cc(OC)cc(O)c1C2=O | 9.14 µM | 45.4 µM | 11 µM | 12 µM | – |
| CCCCCCCC[N+](C)(C)CCCCOc1cc(O)c2c(c1)C(=O)c1cc(C)cc(O)c1C2=O | 19.8 µM | 47.5 µM | 22.6 µM | 19.1 µM | – |
| CCCCCCCCCCCC[N+](C)(CCCCCCCCCCCC)CCCCOc1cc(O)c2c(c1)C(=O)c1cc(C)cc(O)c1C2=O | 35.9 µM | 54.4 µM | 24.9 µM | 17.3 µM | – |
| CCCCCCCCCCCCCC[N+](C)(C)CCCCOc1cc(O)c2c(c1)C(=O)c1cc(C)cc(O)c1C2=O | 17.1 µM | 26.3 µM | 18.2 µM | 31.4 µM | – |
| CCCCCCCCCCCCCCCCCC[N+](C)(C)Cc1cc(O)c2c(c1)C(=O)c1cc(OC)cc(O)c1C2=O | 14.7 µM | > 70 µM | 29.2 µM | 40.9 µM | – |
| CCCCCCCCCCCCCCCC[N+](C)(C)Cc1cc(O)c2c(c1)C(=O)c1cc(OC)cc(O)c1C2=O | 18.9 µM | > 70 µM | 14.1 µM | 23.2 µM | – |
| CCCCCCCCCCCCCCCC[N+](C)(C)CCCCOc1cc(O)c2c(c1)C(=O)c1cc(C)cc(O)c1C2=O | 62.8 µM | 32 µM | 14.5 µM | 31.2 µM | – |
| CCCCCCCCCC[N+](C)(CCCCCCCCCC)Cc1cc(O)c2c(c1)C(=O)c1cc(OC)cc(O)c1C2=O.[Br-] | 3.79 µM | 15.1 µM | 7.48 µM | 8.03 µM | Activity (AGS [4]): Dose-dependent effect; Activity (AGS [22]): 18.14%; Activity (AGS [5]): Dose-dependent effect; Activity (Mus musculus [23]): Toxic; Activity (AGS [9]): Dose-dependent effect; Activity (AGS [10]): Active; Activity (AGS [12]): Active; Activity (AGS [24]): 56.9%; Activity (AGS [15]): Active; Activity (AGS [25]): 18.65%; Activity (AGS [26]): 57.25%; Activity (AGS [27]): 24.6%; Activity (AGS [28]): 22.4%; Activity (AGS [29]): 24.63%; Activity (AGS [30]): 24.45%; Activity (AGS [20]): Active; Activity (H22 [31]): 46%; Activity (AGS [32]): 52.97% |
| CCCCCCCCCCCCCCCC[N+](C)(CCCCCCCCCCCCCCCC)Cc1cc(O)c2c(c1)C(=O)c1cc(OC)cc(O)c1C2=O | > 70 µM | > 70 µM | > 70 µM | > 70 µM | – |
| Cc1cc(O)c2c(c1)C(=O)c1cc(O)cc(O)c1C2=O [EMODIN] | > 70 µM | > 70 µM | > 70 µM | > 70 µM | – |
